In experiment [1] the target is T1, human SLC7A4 triple mutant (Tri-M) (Homo sapiens, UniProt O43246, L336S/L394M/V332S).
T1 construct: C-terminal FLAG tag
T1 sequence (O43246 1-635 V332S/L336S/L394M): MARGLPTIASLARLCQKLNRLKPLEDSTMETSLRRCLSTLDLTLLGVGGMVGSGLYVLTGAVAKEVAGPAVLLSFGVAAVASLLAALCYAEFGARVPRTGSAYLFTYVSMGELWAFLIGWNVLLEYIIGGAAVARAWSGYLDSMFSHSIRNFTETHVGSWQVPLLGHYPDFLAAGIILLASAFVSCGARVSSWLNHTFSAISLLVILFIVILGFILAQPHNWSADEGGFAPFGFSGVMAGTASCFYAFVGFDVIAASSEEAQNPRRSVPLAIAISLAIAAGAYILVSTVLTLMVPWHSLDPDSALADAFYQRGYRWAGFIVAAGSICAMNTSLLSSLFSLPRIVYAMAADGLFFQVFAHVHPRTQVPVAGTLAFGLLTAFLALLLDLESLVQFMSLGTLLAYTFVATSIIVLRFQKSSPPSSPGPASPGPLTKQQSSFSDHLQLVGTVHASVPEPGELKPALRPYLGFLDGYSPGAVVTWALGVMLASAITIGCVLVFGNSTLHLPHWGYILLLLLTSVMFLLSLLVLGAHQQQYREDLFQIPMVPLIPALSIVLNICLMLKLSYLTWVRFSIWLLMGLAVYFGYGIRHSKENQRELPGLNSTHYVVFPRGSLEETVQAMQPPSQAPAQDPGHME
Kind of experiment: competition of […] L-Leu uptake in HCT116 SLC7A5 KO cells. It is filed as cell-based.

In experiment [2] the target is T2, human SLC7A4 (Homo sapiens, UniProt O43246).
T2 construct: C-terminal FLAG tag
T2 sequence (O43246 1-635): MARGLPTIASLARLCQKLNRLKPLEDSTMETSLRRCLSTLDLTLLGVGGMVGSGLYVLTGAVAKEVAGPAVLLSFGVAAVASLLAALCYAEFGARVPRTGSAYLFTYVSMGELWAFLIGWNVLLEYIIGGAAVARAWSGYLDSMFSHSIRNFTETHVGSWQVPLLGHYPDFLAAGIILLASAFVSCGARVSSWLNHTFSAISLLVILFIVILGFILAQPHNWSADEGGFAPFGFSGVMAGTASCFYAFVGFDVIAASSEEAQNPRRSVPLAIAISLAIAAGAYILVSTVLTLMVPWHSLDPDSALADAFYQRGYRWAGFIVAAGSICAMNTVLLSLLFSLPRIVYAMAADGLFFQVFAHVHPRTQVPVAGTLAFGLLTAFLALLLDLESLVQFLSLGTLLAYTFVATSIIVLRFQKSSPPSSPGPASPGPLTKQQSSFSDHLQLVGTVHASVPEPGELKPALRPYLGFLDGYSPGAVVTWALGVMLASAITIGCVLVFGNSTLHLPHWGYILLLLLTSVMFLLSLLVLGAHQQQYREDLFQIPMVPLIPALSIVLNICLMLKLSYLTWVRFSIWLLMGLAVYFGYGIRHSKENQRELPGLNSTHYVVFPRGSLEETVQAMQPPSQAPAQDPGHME
In words: competition of […] L-Leu uptake in HCT116 SLC7A5 KO cells; also recognised in nanoDSF; not transported. Format: cell-based. For orientation: DSF heats the sample and reads unfolding from a dye or from intrinsic fluorescence.

Experiment [3] deals with T2, human SLC7A4. Kind of experiment: […] L-Leu uptake competition in HCT116 SLC7A5 KO cells overexpressing SLC7A4; also nanoDSF (~[…] °C) and proteoliposome uptake. Format: cell-based.
The target in experiment [4] is T1, human SLC7A4 triple mutant (Tri-M). In words: […] L-Leu uptake and competition in HCT116 SLC7A5 KO cells. Format: cell-based.
The target of experiment [5] is T3, Arabidopsis thaliana CAT4 (SLC7A4/CAT4) (Arabidopsis thaliana (Mouse-ear cress)., UniProt Q8W4K3).
T3 construct: Cationic amino acid transporter 4 (CAT4) of Arabidopsis thaliana, UniProt Q8W4K3; codon-optimised synthetic gene in pDDGFP-Leu2D; C-terminal TEV site (ENLYFQG/S), yeGFP and His12 removed by TEV protease, so part of the TEV site stays on the C-terminus; also called AtCAT4; Arabidopsis thaliana SLC7A4; source: S. cerevisiae BJ5460, purified in LMNG (Ni-NTA, TEV cleavage, HisTrap flow-through, SEC); …
Kind of experiment: BLI; Octet Red 384; who was immobilised is not stated. The note with it: both partners purified. (In general: BLI is a label-free optical method that tracks binding on a fibre tip over time.)

T3 sequence (Q8W4K3 whole entry): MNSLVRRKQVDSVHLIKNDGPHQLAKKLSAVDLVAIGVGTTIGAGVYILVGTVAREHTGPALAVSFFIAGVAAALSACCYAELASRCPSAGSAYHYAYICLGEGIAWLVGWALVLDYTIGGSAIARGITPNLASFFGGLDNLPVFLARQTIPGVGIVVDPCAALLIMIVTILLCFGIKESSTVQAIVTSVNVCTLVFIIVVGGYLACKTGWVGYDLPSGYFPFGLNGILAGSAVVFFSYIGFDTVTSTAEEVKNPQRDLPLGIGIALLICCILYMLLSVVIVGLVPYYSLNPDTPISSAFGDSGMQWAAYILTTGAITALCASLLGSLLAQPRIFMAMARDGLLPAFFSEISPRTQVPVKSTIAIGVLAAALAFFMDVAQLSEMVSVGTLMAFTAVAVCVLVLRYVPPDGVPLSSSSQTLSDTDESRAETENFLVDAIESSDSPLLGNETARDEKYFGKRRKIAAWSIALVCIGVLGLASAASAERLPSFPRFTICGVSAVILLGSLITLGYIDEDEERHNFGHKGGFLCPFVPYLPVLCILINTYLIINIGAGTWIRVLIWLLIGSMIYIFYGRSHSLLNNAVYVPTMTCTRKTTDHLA

Take `N=C(N)NCCC[C@H](N)C(=O)O` [L-Arginine]: the results for the IC50 in experiment [1] and in experiment [2] were 48.6 ± 2.3 µM and 680 ± 19 µM, respectively. Regarding `CC(C)C[C@H](N)C(=O)O` [L-Leucine], the results for the IC50 in experiment [3] and in experiment [4] were 24 ± 5 µM and 65 µM, respectively.

B1: Sybody B5 (VHH)
VHH: QVQLVESGGGLVQAGGSLRLSCAASGFPVNMYWMHWYRQAPGKEREWVAAIQSYGQWTAYADSVKGRFTISRDNAKNTVYLQMNSLKPEDTAVYYCAVGVGGYYLGQGTQVTVS
notes: Synthetic nanobody selected from the loop sybody library against AtCAT4; also called SybB5; source: E. coli MC1061, periplasmic extraction, purified (Ni-NTA); not shown: Myc, C-terminal, kept; His6, C-terminal, kept
In experiment [5], B1 showed an equilibrium dissociation constant (Kd) of 0.0573 ± 0.0105 µM.

A word on the IC50: it is the midpoint of a concentration-inhibition curve. The low end stands for higher potency, the high end for lower potency. One may read the Kd as the equilibrium constant for the complex coming apart. The low end stands for a tighter complex, the high end for a looser complex.

For the origin of these results see paper PMC13194723, “Structural basis for pH-responsive amino acid transport via SLC7A4” (Nature Communications, 2026).
